According to patent US3993683A, “Biphenylyl derivatives” (Boehringer Ingelheim GmbH, priority 1974, dated 1976):
Read-outs that look alike come from different tables or passages of the source.

Legend:
non-anesthetized mice = assay: Prolonging effect upon the bleeding time (method of Duke); assay type: in vivo; conditions: 10 mgm/kg per os, vs untreated animals; for change in vivo at 10 mg/kg: Mus musculus, po
Source text: 2. The prolonging effect upon the bleeding time was ascertained by the method of Duke, J. Amer. Med. Assoc. 15, 1185 (1910). 10 mgm/kg of the test compound were given per os to non-anesthetized mice. One or three hours after administration of the test compound, about 0.5 mm was cut off from the tail of each animal, and the exuded blood was carefully soaked up with filter paper at intervals of 30 seconds. The number of drops of blood so obtained was used as a measure for the bleeding time compared to untreated animals (5 animals/test).

white mice = assay: Acute toxicity after oral administration of a single dose; assay type: in vivo; conditions: observation time 14 days
Procedure: (§1) The acute toxicity of the test compounds was determined in white mice (observation time: 14 days) after oral administration of a single dose.

[1] = as above; assay type: in vivo; conditions: mouse, in vivo, po, white mice, observation time 14 days
Procedure: as §1

[2] = system: thrombocyte aggregation in the platelet-rich plasma of healthy human test subjects; assay: Inhibition of collagen-induced thrombocyte aggregation (method of Born and Cross); assay type: cell-based; conditions: 10^-4 mol/liter test compound, 10 minutes incubation at 37° C, vs untreated controls; for inhibition at 100 µM: Homo sapiens, 10 min
Source text: 1. The inhibiting action upon thrombocyte aggregation was ascertained by the method of Born and Cross, J. Physiol. 170, 397 (1964), in the platelet-rich plasma of healthy human test subjects, by photometrically ascertaning and registering the rate of decrease of the optical density after addition of commercial collagen containing 1 mgm of collagen fibrils per ml. The angle of inclination of the density curve is a measure of the rate of aggregaton (V max.). The point on the curve which corresponded to the greatest lightpermeability was used for calculation of the optical density (o.D.).
The collagen doses were held to a minimum, but still sufficiently large to result in an irreversible aggregation. Prior to addition of collagen, each plasma sale was incubated for 10 minutes at 37° C with various amounts of the test compound. To provoke maximum aggregation, about 0.01 ml of the collagen solution was added to 1 ml of platelet-rich plasma.
The values in Table I below represent the inhibition of the aggregation rate in % (V max) and the alteration of the optical density (O.D.) in %, compared with the untreated controls, i.e. without addition of the test compound.

[3] = 1 h, 1 hour after administration, read-out: Prolongation of bleeding time in % after 1 hour
[4] = read-out: Inhibition in % of the aggregation rate (V max)
[5] = read-out: Inhibition in %: alteration of the optical density (O.D.)
[6] = 3 h, 3 hours after administration, read-out: Prolongation of bleeding time in % after 3 hours

Row | SMILES | change in vivo at 10 mg/kg (non-anesthetized mice; [3]) [%] | animals died (at the stated dose) (white mice) | LD50 at 336 h [1] [mg/kg] | inhibition at 100 µM [2, 4] [%] | inhibition at 100 µM [2, 5] [%] | change in vivo at 10 mg/kg (non-anesthetized mice; [6]) [%] | Prolongation of bleeding time in % after 1 hour (non-anesthetized mice; 1 hour after administration) [%] | Prolongation of bleeding time in % after 3 hours (non-anesthetized mice; 3 hours after administration) [%] | Inhibition in % of the aggregation rate (V max) [2] [%] | Inhibition in %: alteration of the optical density (O.D.) [2] [%]
1 | CC(c1ccc(-c2ccccc2F)cc1)[S+]([O-])CC(=O)N1CC[S+]([O-])CC1 (centres unmarked) [J, [1-(2'-fluoro-4-biphenylyl)-ethylsulfinyl]-acetic acid-(1-oxido-thiomorpholide)] | 149 | 0 out of 5 | > 250 | 16 | 31 | – | – | – | – | –
2 | COC(=O)C[S+]([O-])C(C)c1ccc(-c2ccccc2[N+](=O)[O-])cc1 (centres unmarked) [P, [1-(2'-nitro-4-biphenylyl)ethylsulfinyl]-acetic acid methyl ester] | 15 | 0 out of 5 | > 250 | 61 | 74 | – | – | – | – | –
3 | COC(=O)C[S+]([O-])C(C)c1ccc(-c2ccc(Br)cc2)c(F)c1 (centres unmarked) [R, [1-(2-fluoro-4'-bromo-4-biphenylyl)-ethylsulfinyl]-acetic acid methyl ester] | 50 | – | – | 46 | 64 | – | – | – | – | –
4 | CC(c1ccc(-c2ccccc2F)cc1)S(C)(=O)=O (centres unmarked) [U, [1-(2'-fluoro-4-biphenylyl)-ethyl]-methylsulfone] | 56 | 0 out of 5 | > 250 | 87 | 90 | – | – | – | – | –
5 | CNC(=O)C[S+]([O-])C(C)c1ccc(-c2ccccc2F)cc1 (centres unmarked) [H, [1-(2'-fluoro-4-biphenylyl)-ethylsulfinyl]-acetic acid methyl amide] | 64 | 0 out of 5 | > 250 | 8 | 13 | – | – | – | – | –
6 | COC(=O)C[S+]([O-])C(C)(C)c1ccc(-c2ccccc2F)cc1 (centres unmarked) [D] | 71 | 2 out of 5 | > 250 | 37 | 48 | – | – | – | – | –
7 | COC(=O)C[S+]([O-])C(C)c1ccc(-c2ccccc2F)c(F)c1 (centres unmarked) [Q, [1-(2,2'-difluoro-4-biphenylyl)-ethylsulfinyl]-acetic acid methyl ester] | 73 | 0 out of 5 | > 250 | 48 | 54 | – | – | – | – | –
8 | CC(C)CCOC(=O)CS(=O)(=O)C(C)c1ccc(-c2ccccc2F)cc1 (centres unmarked) [T, [1-(2'-fluoro-4-biphenylyl)-ethylsulfonyl]-acetic acid isoamyl ester] | 51 | 0 out of 5 | > 250 | 76 | 83 | – | – | – | – | –
9 | CC(c1ccc(-c2ccccc2F)cc1)[S+]([O-])CC(=O)N1CCCCC1 (centres unmarked) [I, [1-(2'-fluoro-4-biphenylyl)-ethylsulfinyl]-acetic acid piperidide] | 122 | 0 out of 5 | > 250 | 85 | 90 | – | – | – | – | –
10 | COC(=O)C[S+]([O-])C(C)c1ccc(-c2ccccc2F)cc1 (single isomer, unassigned) [F, dextrorotatory [1-(2'-fluoro-4-biphenylyl)-ethylsulfinyl]-acetic acid methyl ester] | 117 | – | – | 20 | 19 | – | – | – | – | –
11 | COC(=O)C[S+]([O-])CC(=O)c1ccc(-c2ccccc2F)cc1 (centres unmarked) [M, [2-(2'-fluoro-4-biphenylyl)-2-oxo-ethylsulfinyl]-acetic acid methyl ester] | 90 | – | – | 97 | 95 | 39 | – | – | – | –
12 | COC(=O)C[S+]([O-])C(C)c1ccc(-c2ccccc2F)cc1 (single isomer, unassigned) [B, [1-(2'-fluoro-4-biphenylyl)-ethylsulfinyl]-acetic acid methyl ester] | – | 2 out of 5 | – | – | – | – | 142 | 56 | 72 | 81
13 | O=C(O)C[S+]([O-])CC(=O)c1ccc(-c2ccc(F)cc2)cc1 (centres unmarked) [N, [2-(4'-fluoro-4-biphenyl)-2-oxo-ethylsulfinyl]acetic acid] | 98 | – | – | – | – | 37 | – | – | – | –
14 | CC(C)CCOC(=O)C[S+]([O-])C(C)c1ccc(-c2ccccc2F)cc1 (centres unmarked) [C, [1-(2'-fluoro-4-biphenylyl)-ethylsulfinyl]-acetic acid isoamyl ester] | 112 | 1 out of 5 | > 250 | 67 | 82 | 49 | – | – | – | –
15 | COC(=O)C[S+]([O-])CC(=O)c1ccc(-c2ccccc2)cc1 (centres unmarked) [L, [2-(4-biphenylyl)-2-oxo-ethylsulfinyl]-acetic acid methyl ester] | 120 | – | – | 22 | 47 | 78 | – | – | – | –
16 | O=C(O)CS(=O)(=O)Cc1ccc(-c2ccc(Cl)cc2)cc1 [V, [(4'-chloro-4-biphenylyl)-methylsulfonyl]-acetic acid, reference compound] | 3 | 3 out of 10 | > 250 | 6 | 11 | – | – | – | – | –
17 | COC(=O)CS(=O)(=O)C(C)c1ccc(-c2ccccc2F)cc1 (centres unmarked) [S] | 83 | 0 out of 5 | > 250 | 45 | 66 | 27 | – | – | – | –
18 | COC(=O)C[S+]([O-])CCC(C)c1ccc(-c2ccccc2)cc1 (centres unmarked) [E, [3-(4-biphenylyl)-butyl-(1)-sulfinyl]-acetic acid methyl ester] | 188 | 0 out of 5 | > 250 | 92 | 95 | 85 | – | – | – | –
19 | COC(=O)C[S+]([O-])C(C)c1ccc(-c2cccc(Cl)c2)cc1 (centres unmarked) [O, [1-(3'-chloro-4-biphenylyl)-ethylsulfinyl]-acetic acid methyl ester] | 12 | 0 out of 5 | > 250 | 66 | 76 | – | – | – | – | –
20 | C[S+]([O-])CC(O)c1ccc(-c2ccc(F)cc2)cc1 (centres unmarked) [K] | 68 | – | – | 59 | 73 | 30 | – | – | – | –
21 | COC(=O)C[S+]([O-])C(C)c1ccc(-c2ccccc2F)cc1 (single isomer, unassigned) [G, levorotatory [1-(2'-fluoro-4-biphenylyl)-ethylsulfinyl]-acetic acid methyl ester] | – | – | – | – | – | – | 129 | – | 13 | 27
22 | COC(=O)C[S+]([O-])C(C)c1ccc(-c2ccccc2F)cc1 (single isomer, unassigned) [A, [1-(2'-fluoro-4-biphenylyl)-ethylsulfinyl]-acetic acid methyl ester] | 136 | 1 out of 10 | – | – | – | 66 | – | – | 32 | 45
